*1 amine or outer side, *2 acyl side, *3 side chain or, on linkers, in order; H or OH if unused. Where a SMILES comes first, the peptide text is derived from it. Bridges are numbered along the chain shown (N, C = ends). [ ]: non-standard residue; d: D form. The star is where a group is joined. ξ: configuration not given here. X2 = N=C1NC(O)C[C@H]([C@H](N[*:1])C(=O)[*:2])N1; ΔAla(Z-3-ureido) = NC(=O)N/C=C(\N)C(=O)O; X1 = N=C1NCCC(C(N[*:1])C(=O)[*:2])N1; ξβ3hOrn = NCCCC(N)CC(=O)*; Dap = NC[CH](N)C(=O)O
Biological target: Bile salt export pump (Homo sapiens, UniProt O95342)
Type: ADME

Row | SMILES | IC50 [µM]
1 | N=C1NCCC(C2NC(=O)/C(=C/NC(N)=O)NC(=O)C(CNC(=O)CC(N)CCCN)NC(=O)C(CO)NC(=O)C(N)CNC2=O)N1 (stereo not drawn) (H-[Dap]S[Dap](ξβ3hOrn)[ΔAla(Z-3-ureido)][X1]; lactam 1-C; configuration not given here) | > 1000
2 | CN1CCc2cccc3c2[C@H]1Cc1ccc(O)c(O)c1-3 (stereo in doubt; form 1) [APOMORPHINE] | 211
3 | CN1CCc2cccc3c2[C@H]1Cc1ccc(O)c(O)c1-3 (stereo in doubt; form 2) [APOMORPHINE] | 391
4 | N=C1NC(O)C[C@H]([C@@H]2NC(=O)/C(=C/NC(N)=O)NC(=O)[C@H](CO)NC(=O)[C@H](CO)NC(=O)[C@@H](NC(=O)CC(N)CCCN)CNC2=O)N1 (stereo partly drawn) (ξβ3hOrn-[Dap]SS[ΔAla(Z-3-ureido)][X2]; lactam 1-C) | > 1000
5 | N[C@H]1C[C@@H]1c1ccccc1 [(+)-TRANYLCYPROMINE] | 103
6 | COC(=O)C1=C(C)NC(C)=C(C(=O)OC(C)C)[C@@H]1c1cccc2nonc12 [(R)-ISRADIPINE] | < 10
7 | C[C@@](O)(CS(=O)(=O)c1ccc(F)cc1)C(=O)Nc1ccc(C#N)c(C(F)(F)F)c1 [(S)-BICALUTAMIDE] | < 10
8 | CCC(=N\O)/C(C)=C/c1ccc(F)cc1 [A-079] | 26.8
9 | CCN(CC)CCNC(=O)c1ccc(NC(C)=O)cc1 [ACECAINIDE] | > 1000
10 | CC(=O)c1ccc2c(c1)N(CCCN(C)C)c1ccccc1S2 [ACEPROMAZINE] | 112
11 | CC(=O)Nc1ccccc1 [ACETANILIDE] | > 1000
12 | CC(=O)Nc1cc([As](=O)(O)O)ccc1O [ACETARSONE] | > 1000
13 | CC(=O)OCC[N+](C)(C)C [ACETYLCHOLINE] | > 1000
14 | CC(=O)Nc1ccc(CC(=O)O)cc1 [ACTARIT] | > 1000
15 | Nc1ncnc2nc[nH]c12 [ADENINE] | > 1000
16 | CCN(CC)CCOC(=O)C(c1ccccc1)c1ccccc1 [ADIPHENINE] | 158
17 | NC(=O)c1ccc([N+](=O)[O-])cc1Cl [AKLOMIDE] | > 1000
18 | CCC[S+]([O-])CCCN(CC)CC(O)COc1ccc(C#N)cc1 (stereo unspecified) [ALMOKALANT] | 55.7
19 | CN(C)c1nc(N(C)C)nc(N(C)C)n1 [ALTRETAMINE] | > 1000
20 | N=C(N)NC(=O)c1nc(Cl)c(N)nc1N [AMILORIDE] | > 1000
21 | CCC1(c2ccc(N)cc2)CCC(=O)NC1=O (stereo unspecified) [AMINOGLUTETHIMIDE] | > 1000
22 | Nc1ccc(C(=O)NCC(=O)O)cc1 [AMINOHIPPURIC ACID] | > 1000
23 | CCOC(=O)C1=C(COCCN)NC(C)=C(C(=O)OC)C1c1ccccc1Cl (stereo unspecified) [AMLODIPINE] | 16
24 | CCN(CC)Cc1cc(Nc2ccnc3cc(Cl)ccc23)ccc1O [AMODIAQUINE] | 77.8

Row | SMILES | IC50 [µM]
25 | Clc1ccc2c(c1)C(N1CCNCC1)=Nc1ccccc1O2 [AMOXAPINE] | 230
26 | CCCc1ncc(C[n+]2ccccc2C)c(N)n1 [AMPROLIUM ION] | > 1000
27 | c1ccc(CN(CC2=NCCN2)c2ccccc2)cc1 [ANTAZOLINE] | > 1000
28 | Cc1cc(=O)n(-c2ccccc2)n1C [ANTIPYRINE] | > 1000
29 | COC(=O)C1=CCCN(C)C1 [ARECOLINE] | > 1000
30 | C[C@H]1C[C@H]2[C@@H]3CCC4=CC(=O)C=C[C@]4(C)[C@@]3(Cl)[C@@H](O)C[C@]2(C)[C@@]1(O)C(=O)CO [BECLOMETHASONE] | 23.7
31 | NS(=O)(=O)c1cc2c(cc1C(F)(F)F)NC(Cc1ccccc1)NS2(=O)=O (stereo unspecified) [BENDROFLUMETHIAZIDE] | 69.6
32 | CC(C(=O)O)c1ccc2oc(-c3ccc(Cl)cc3)nc2c1 (stereo unspecified) [BENOXAPROFEN] | 104
33 | CCCCOc1cc(C(=O)OCCN(CC)CC)ccc1N [BENOXINATE] | 309
34 | NC(CO)C(=O)NNCc1ccc(O)c(O)c1O (stereo unspecified) [BENSERAZIDE] | 117
35 | O=C(O)c1ccc(NC(=O)[C@H](Cc2ccc(O)cc2)NC(=O)c2ccccc2)cc1 [BENTIROMIDE] | 235
36 | CCOC(=O)c1ccc(N)cc1 [BENZOCAINE] | > 1000
37 | CCCCNc1ccc(C(=O)OCCOCCOCCOCCOCCOCCOCCOCCOCCOC)cc1 [BENZONATATE] | < 10
38 | O=C(Nc1ccc(C(=O)O)c(O)c1)c1ccccc1 [BENZOYLPAS] | > 1000
39 | NS(=O)(=O)c1cc2c(cc1Cl)N=C(CSCc1ccccc1)NS2(=O)=O [BENZTHIAZIDE] | 57.4
40 | CC(C)COCC(CN(Cc1ccccc1)c1ccccc1)N1CCCC1 (stereo unspecified) [BEPRIDIL] | < 16.5
41 | CC1=C(/C=C/C(C)=C/C=C/C(C)=C/C=C/C=C(C)/C=C/C=C(C)/C=C/C2=C(C)CCCC2(C)C)C(C)(C)CCC1 [BETA CAROTENE] | < 10
42 | C[N+](C)(C)CC(=O)O [BETAINE] | > 1000
43 | CC(C)NCC(O)COc1ccc(CCOCC2CC2)cc1 (stereo unspecified) [BETAXOLOL] | > 1000
44 | CC(C[N+](C)(C)C)OC(N)=O (stereo unspecified) [BETHANECHOL] | > 1000
45 | CC(C)(Oc1ccc(CCNC(=O)c2ccc(Cl)cc2)cc1)C(=O)O [BEZAFIBRATE] | 181
46 | CC(=O)Oc1ccc(C(c2ccc(OC(C)=O)cc2)c2ccccn2)cc1 [BISACODYL] | 56.4
47 | COc1ccccc1Oc1c(NS(=O)(=O)c2ccc(C(C)(C)C)cc2)nc(-c2ncccn2)nc1OCCO [BOSENTAN] | < 25.3
48 | CC[N+](C)(C)Cc1ccccc1Br [BRETYLIUM] | > 1000

Row | SMILES | IC50 [µM]
49 | CN(Cc1cc(Br)cc(Br)c1N)C1CCCCC1 [BROMHEXINE] | 20.3
50 | CCCCNc1cc(C(=O)O)cc(S(N)(=O)=O)c1Oc1ccccc1 [BUMETANIDE] | 526
51 | CC(NC(C)(C)C)C(=O)c1cccc(Cl)c1 (stereo unspecified) [BUPROPION] | > 1000
52 | O=C1CC2(CCCC2)CC(=O)N1CCCCN1CCN(c2ncccn2)CC1 [BUSPIRONE] | 59.6
53 | CS(=O)(=O)OCCCCOS(C)(=O)=O [BUSULFAN] | > 1000
54 | CCCCN(CCCC)CCCOC(=O)c1ccc(N)cc1 [BUTACAINE] | 488
55 | CCCCOC(=O)c1ccc(N)cc1 [BUTAMBEN] | 181
56 | CSCCNc1nc(SCCC(F)(F)F)nc2c1ncn2[C@@H]1O[C@H](COP(=O)(O)OP(=O)(O)C(Cl)(Cl)P(=O)(O)O)[C@@H](O)[C@H]1O [CANGRELOR] | > 1000
57 | COc1cc(C(=O)NCCCCCC(=O)O)cc(OC)c1OC [CAPOBENIC ACID] | > 1000
58 | COc1cc(CNC(=O)CCCC/C=C/C(C)C)ccc1O [CAPSAICIN] | < 10
59 | COC(=O)N/N=C/c1c[n+]([O-])c2ccccc2[n+]1[O-] [CARBADOX] | > 940
60 | C[N+](C)(C)CCOC(N)=O [CARBAMOYLCHOLINE] | > 1000
61 | C[C@@](Cc1ccc(O)c(O)c1)(NN)C(=O)O [CARBIDOPA ANHYDROUS] | > 1000
62 | CCOC(=O)n1ccn(C)c1=S [CARBIMAZOLE] | > 1000
63 | CN(C)CCOC(c1ccc(Cl)cc1)c1ccccn1 (stereo unspecified) [CARBINOXAMINE] | > 1000
64 | O=NN(CCCl)C(=O)NCCCl [CARMUSTINE] | 97.2
65 | C[N+](C)(C)CC(O)CC(=O)[O-] (stereo unspecified) [CARNITINE] | > 1000
66 | CC(C)(C)NCC(O)COc1cccc2c1CCC(=O)N2 (stereo unspecified) [CARTEOLOL] | > 1000
67 | C=CC1=C(C(=O)O)N2C(=O)[C@@H](NC(=O)/C(=N\OCC(=O)O)c3csc(N)n3)[C@H]2SC1 [CEFIXIME] | > 1000
68 | CCN(CC)CCOC(=O)c1ccc(N)cc1Cl [CHLOROPROCAINE] | > 1000
69 | Cc1cc(O)cc(C)c1Cl [CHLOROXYLENOL] | 130
70 | CN(C)CCCN1c2ccccc2Sc2ccc(Cl)cc21 [CHLORPROMAZINE] | 91
71 | CN(C)CC/C=C1/c2ccccc2Sc2ccc(Cl)cc21 [CHLORPROTHIXENE] | 27.5
72 | O=C(O)c1cc(-c2ccccc2)nc2ccccc12 [CINCHOPHEN] | > 814

Row | SMILES | IC50 [µM]
73 | CCCC(=O)OCOC(=O)C1=C(C)NC(C)=C(C(=O)OC)C1c1cccc(Cl)c1Cl (stereo unspecified) [CLEVIDIPINE] | 36.4
74 | CCN(CC)CCOc1ccc(C(=C(Cl)c2ccccc2)c2ccccc2)cc1 [CLOMIPHENE] | < 10
75 | Cc1onc(-c2ccccc2Cl)c1C(=O)N[C@@H]1C(=O)N2[C@@H]1SC(C)(C)[C@@H]2C(=O)O [CLOXACILLIN] | 41.6
76 | Oc1ccc(Cl)c2cccnc12 [CLOXYQUIN] | 357
77 | CN1CCN(C2=Nc3cc(Cl)ccc3Nc3ccccc32)CC1 [CLOZAPINE] | 75.1
78 | C[C@]12CCC(=O)C=C1CC[C@@H]1[C@@H]2C(=O)C[C@@]2(C)[C@H]1CC[C@]2(O)C(=O)CO [CORTISONE] | 108
79 | O=c1ccc2ccccc2o1 [COUMARIN] | > 1000
80 | O=C(NO)C1(CS(=O)(=O)c2ccc(Oc3ccc(Cl)cc3)cc2)CCOCC1 [CTS-1027] | 23.4
81 | CC1CC(OC(=O)C(O)c2ccccc2)CC(C)(C)C1 (stereo unspecified) [CYCLANDELATE] | 15
82 | CN(C)CCC=C1c2ccccc2C=Cc2ccccc21 [CYCLOBENZAPRINE] | 107
83 | NCCS [CYSTEAMINE] | 331
84 | CN(C)/N=N/c1[nH]cnc1C(N)=O [DACARBAZINE] | > 1000
85 | C#C[C@]1(O)CC[C@H]2[C@@H]3CCC4=Cc5oncc5C[C@]4(C)[C@H]3CC[C@@]21C [DANAZOL] | < 10
86 | O=C1CN(/N=C/c2ccc(-c3ccc([N+](=O)[O-])cc3)o2)C(O)=N1 [DANTROLENE] | 145
87 | Cc1nc(Nc2ncc(C(=O)Nc3c(C)cccc3Cl)s2)cc(N2CCN(CCO)CC2)n1 [DASATINIB] | < 10
88 | O=C(O)c1ccc(OCCn2ccnc2)cc1 [DAZOXIBEN] | > 1000
89 | N=C(N)N1CCc2ccccc2C1 [DEBRISOQUIN] | > 952
90 | COc1ccc(-c2cc(C(F)F)nn2-c2ccc(S(N)(=O)=O)cc2)cc1F [DERACOXIB] | 20.2
91 | CNCCCN1c2ccccc2CCc2ccccc21 [DESIPRAMINE] | 150
92 | C[C@@H]1C[C@H]2[C@@H]3CCC4=CC(=O)C=C[C@]4(C)[C@@]3(F)[C@@H](O)C[C@]2(C)[C@H]1C(=O)CO [DESOXIMETASONE] | 16.4
93 | C[C@]12CC[C@H]3[C@@H](CCC4=CC(=O)CC[C@@]43C)[C@@H]1CC[C@@H]2C(=O)CO [DESOXYCORTICOSTERONE] | 17.1
94 | CN1C(=O)[C@@H](NC(=O)c2cc3ccccc3[nH]2)N=C(c2ccccc2)c2ccccc21 [DEVAZEPIDE] | < 10
95 | C[C@@H]1C[C@H]2[C@@H]3CCC4=CC(=O)C=C[C@]4(C)[C@@]3(F)[C@@H](O)C[C@]2(C)[C@@]1(O)C(=O)CO [DEXAMETHASONE] | 102
96 | CC(C)(CO)[C@@H](O)C(=O)NCCCO [DEXPANTHENOL] | > 1000

— ChEMBL document CHEMBL4017441, “Mitigating the inhibition of human bile salt export pump by drugs: opportunities provided by physicochemical property modulation, in silico modeling, and structural modification” (Drug Metab Dispos, 2012)
